Data reported in US8846645B2, “Cyclohexane compounds and their use as antibiotics” (Rheinische Friedrich-Wilhelms Universität Bonn, priority 2010, dated 2014).
Values belong to the compound of their own block, whether it stands above or below them.

Key:
[1] = system: Staphylococcus aureus Mu50 cells; experiment: growth inhibition in vancomycin intermediate resistant Staphylococcus aureus Mu50 in sugar free medium; format: cell-based
Procedure: For the preparation of 2× chemically defined medium (2×CDM), a minimal medium for Staphylococcus aureus without glucose, for the preparation of 500 ml the following components were mixed in individual groups before being combined:
After preparation of the individual groups, the groups I-IV were added to group V. The volume was adjusted to 480 ml with ddH2O. The pH was adjusted to 7 using HCl followed by adjusting the volume to the final 500 ml. Before storage at 4° C. the medium was sterile filtered.
The determination of the decrease in bacterial growth of Staphylococcus aureus Mu50 cells (RKI Berlin) depending on the concentration of the compound according to formula (3) (C GlcN) was performed in clear, sterile, round bottom 96-well plates with lid. Before treatment, the cells were grown in 2×CDM medium without glucose at 37° C. for 24 h under vigorous shaking.
For the determination of the growth inhibition 100 μl of 2×CDM were put into each of 12 wells. […] The 96 well plate was incubated at 37° C. in a Tecan Sunrise plate reader, which tracks the optical density (OD600) in 10 minute intervals and automatically shakes the plate for one minute every two minutes. Minimal inhibitory concentration was read after 18 h to 24 h of incubation. […]

[2] = system: glmS riboswitch of Staphylococcus aureus MU50; experiment: metabolite-induced self-cleavage assay of the glmS riboswitch; format: biochemical
Procedure: The determination was performed using an in vitro preparation of the glmS riboswitch of Staphylococcus aureus MU50.
The glmS riboswitch DNA was amplified from genomic DNA of the S. aureus Mu50 strain (RKI Berlin) by standard Pfu polymerase chain reaction (PCR) using a 5′ primer containing the T7 promoter (GATAATACGACTCACTATAGGGCAGTTAAAGCGCCTGTGCAAATA, SEQ ID NO: 1) and a 3′ primer (ATCTTATTAACTTTGTCCATTAAGTCACCC, SEQ ID NO: 2) (20 cycles, annealing temperature of 60° C., homemade Pfu enzyme). The resultant of a 100 μl PCR reaction was phenol/chloroform extracted and precipitated using 3M NaOAc pH 5.4 and ethanol Pellets were resuspended in 10 μl diethylpyrocarbonate treated water (DEPC H2O) and used as template for T7 RNA polymerase-based transcription. […]
For this assay the following components were mixed to yield the stated final concentrations: cleavage buffer (50 mM Hepes pH 7.5, 200 mM KCl), MgCl2 (10 mM), glucosamine-6-phosphate (200 μM), glucosamine (GlcN) (200 μM), the compound according to formula (I) (200 μM) or the compound according to formula (3) (200 μM and 20 mM), radioactively labelled RNA (20 cps) and DEPC H2O ad 10 μl. […] The screens were read using a FujiFilm PhosphorImager FLA 3000 and evaluated using AIDA software.

[3] = system: Staphylococcus aureus SG511; experiment: determination of the minimal inhibitory concentration in Staphylococcus aureus SG511; format: cell-based; conditions: 0.5× Mueller-Hinton media, 18-24 h, OD 600 nm; FIG. 3
Procedure: The determination of the minimal inhibitory concentration (MIC) of the compounds according to formula (I) (carba-GlcN6P) and formula (3) (carba-GlcN) was performed in clear, round bottom 96-well plates. For this 100 μl of 0.5× Mueller-Hinton media (Oxoid, 300 gm/litre dehydrated infusion from beef, 17.5 gm/litre casein hydrolysate, 1.5 gm/litre starch, pH 7.3) were put into the 12 wells. To the first well 100 μl of 320 mM solution of carba-GlcN were added, mixed by pipetting and 100 μl of this mixture were transferred into the next well etc., generating a sequence final dilutions from 160 mM to 0.08 mM. Finally, SG511 cells that had been grown to an optical density (OD600) of 1 were diluted in 0.5× Mueller-Hinton media 1:10 000. From this dilution 100 μl were added to the already prepared plate leading to a final compound concentration of 80 mM-0.04 mM. After incubation for 10 min at RT and vivid shaking, the 96-well plate was transferred to a 37° C. incubator. After 18-24 h of incubation the plate was read at 600 nm using a standard plate reader.

[4] = system: Staphylococcus aureus Mu50 cells; experiment: synergistic effects with vancomycin treatment of S. aureus Mu50; format: cell-based; conditions: 0.0025 mM alone
Procedure: Before treatment, Staphylococcus aureus Mu50 cells (RKI Berlin) were grown in sterile, 15 ml flasks containing 5 ml of 2×CDM without glucose at 37° C. for 24 h under vigorous shaking.
For the determination of the growth inhibition 100 μl of 2×CDM containing 10 μM vancomycin were put into each of 12 wells. […] Finally, Mu50 cells that had been grown to an optical density (OD600) of 0.8 to 1 were diluted in 2×CDM to an optical density (OD600) of 0.2. From this dilution 100 μl were added to the already prepared plate leading to a final compound concentration of 80 mM, 40 mM, 20 mM, 10 mM, 5 mM, and 2.5 mM, a final concentration of 2.5 μM vancomycin and a final OD600 of 0.1 per well at the beginning of the measurement. The 96 well plate was incubated at 37° C. in a Tecan Sunrise plate reader, which tracks the optical density (OD600) in 10 minute intervals and automatically shakes the plate for one minute every two minutes. Minimal inhibitory concentration was read after 18 h to 24 h of incubation. Control cells were treated without compounds or with 2.5 μM vancomycin.

MIC ([1]; Staphylococcus aureus, MU50CELLS, 2×CDM without glucose, read after 18 h to 24 h, n=3, read-out: minimal inhibitory concentration (MIC)): 625 µM
Compound: NC1C(O)CC(CO)C(O)C1O (stereo not shown) [formula (3), Carba-glucosamine]
concentration at which measureable growth inhibition started ([1]; sugar free medium, referring to control cells grown without compounds, FIG. 4): 0.156 mM

EC50 ([2]; concentration dependent analysis, 37° C., 30 min): 3.61 ± 0.39 µM
Compound: N[C@H]1C(O)O[C@H](COP(=O)(O)O)[C@@H](O)[C@@H]1O (stereo partly shown) [GlcN6P, glucosamine-6-phosphate, reference compound]

Compound: N[C@@H]1[C@@H](O)[C@H](O)[C@@H](COP(=O)(O)O)C[C@@H]1O [formula (1), (1S,2S,3R,4R,5R)-2-amino-5-((phosphonooxy)methyl)-cyclohexane-1,3,4-triol]
bacterial growth of Staphylococcus aureus [3]: effectively inhibit the growth
activation of the glmS-riboswitch compared with the native metabolite ([2]; versus GlcN6P): almost the same potency

Compound: CN[C@H](CC(C)C)C(=O)N[C@H]1C(=O)N[C@@H](CC(N)=O)C(=O)N[C@H]2C(=O)N[C@H]3C(=O)N[C@H](C(=O)N[C@H](C(=O)O)c4cc(O)cc(O)c4-c4cc3ccc4O)[C@H](O)c3ccc(c(Cl)c3)Oc3cc2cc(c3O[C@@H]2O[C@H](CO)[C@@H](O)[C@H](O)[C@H]2O[C@H]2C[C@](C)(N)[C@H](O)[C@H](C)O2)Oc2ccc(cc2Cl)[C@H]1O [vancomycin]
bacterial growth (OD600) compared to untreated cells ([4]; after 10 h, FIG. 5): no change in the bacterial growth
bacterial growth (OD600) compared to untreated cells ([4]; over 18 h of incubation, FIG. 6): no change in the bacterial growth
